Source: US11051515B2, “3-acyl-benzamides and their use as herbicides” (Bayer Aktiengesellschaft, priority 2017, dated 2021)

Tests used:
[1] = system: ECHCG; assay: Pre-emergence action against ECHCG; assay type: in vivo, Echinochloa crus-galli; conditions: pre-emergence, dosage 320 g/ha, scored visually after 3 weeks vs untreated controls
Outline: (§1)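 Seeds sown in sandy loam in wood-fiber pots and covered with soil. Greenhouse growth; visual damage scored after 3 weeks versus untreated controls (100% = dead, 0% = like control).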

[2] = system: VIOTR; assay: Pre-emergence action against VIOTR; assay type: in vivo, Viola tricolor; conditions: for Herbicidal efficacy against VIOTR: 20 g of a.i./ha
Outline: as §1

[3] = system: ALOMY; assay: Pre-emergence action against ALOMY; assay type: in vivo, Alopecurus myosuroides; conditions: dosage 320 g/ha; pre-emergence; scored visually after 3 weeks vs untreated controls; 100% = plants have died, 0% = like control plants
Outline: as §1

[4] = system: CYPES; assay: Post-emergence action against CYPES; assay type: in vivo, Cyperus esculentus; conditions: for Post-emergence action against CYPES (herbicidal action in percent): dosage 80 g/ha, visual assessment about 3 weeks after treatment vs untreated controls
Outline: (§2)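 Post-emergence foliar spray on greenhouse plants at the one-leaf stage, using wettable-powder or emulsion-concentrate formulations in water (600 to […], plus 0.2% wetting agent). Damage scored by eye roughly 3 weeks later against untreated plants: 0% = like control, 100% = dead.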

[5] = system: MATIN; assay: Post-emergence action against MATIN; assay type: in vivo, Matricaria inodora; conditions: for Post-emergence action against MATIN (herbicidal action in percent): dosage 80 g/ha, visual assessment about 3 weeks after treatment vs untreated controls
Outline: as §2

[6] = system: ALOMY; assay: Post-emergence action against ALOMY; assay type: in vivo, Alopecurus myosuroides
Experimental: Seeds of monocotyledonous and dicotyledonous weed and crop plants are laid out in sandy loam soil in wood-fiber pots, covered with soil and cultivated in a greenhouse under good growth conditions. 2 to 3 weeks after sowing, the test plants are treated at the one-leaf stage. The compounds of the invention, formulated in the form of wettable powders (WP) or as emulsion concentrates (EC), are then sprayed onto the green parts of the plants in the form of an aqueous suspension or emulsion at a water application rate equating to […], with addition of 0.2% wetting agent. After the test plants have been left to stand in the greenhouse under optimal growth conditions for about 3 weeks, the action of the preparations is assessed visually in comparison to untreated controls (herbicidal action in percent (%): 100% activity=the plants have died, 0% activity=like control plants). […] At the same time, inventive compounds leave Gramineae crops such as barley, wheat, rye, millet/Sorghum, corn or rice virtually undamaged when applied post-emergence, even at high active ingredient dosages. In addition, some substances are also harmless to dicotyledonous crops such as soya, cotton, oilseed rape, sugar beet or potatoes. Some of the compounds according to the invention have high selectivity and are therefore suitable for controlling unwanted vegetation in agricultural crops by the post-emergence method. The data of Tables B18 to B34 below illustrate, in an exemplary manner, the […] herbicidal action of the compounds according to the invention, the herbicidal activity being stated in percent.

[7] = system: POLCO; assay: Pre-emergence action against POLCO; assay type: in vivo, Polygonum convolvulus; conditions: Dosage 320 g/ha, pre-emergence
Outline: as §1

[8] = system: PHBPU; assay: Pre-emergence action against PHBPU; assay type: in vivo, Pharbitis purpurea; conditions: Dosage 320 g/ha, pre-emergence
Outline: as §1

[9] = system: SETVI; assay: Post-emergence action against SETVI; assay type: in vivo, Setaria viridis; conditions: post-emergence, dosage 80 g/ha, visual assessment about 3 weeks after treatment vs untreated controls
Outline: as §2

[10] = system: AMARE; assay: Post-emergence action against AMARE; assay type: in vivo, Amaranthus retroflexus; conditions: post-emergence, dosage 80 g/ha, visual assessment about 3 weeks after treatment vs untreated controls
Outline: as §2

[11] = system: AMARE; assay: Pre-emergence action against AMARE; assay type: in vivo, Amaranthus retroflexus
Outline: as §1

[12] = system: VERPE; assay: Post-emergence action against VERPE; assay type: in vivo, Veronica persica; conditions: dosage 80 g/ha
Outline: as §2

[13] = system: ABUTH; assay: Post-emergence action against ABUTH; assay type: in vivo, Abutilon theophrasti; conditions: for Post-emergence action against ABUTH (herbicidal action in percent): dosage 80 g/ha, visual assessment about 3 weeks after treatment vs untreated controls
Outline: as §2

[14] = system: SETVI; assay: Pre-emergence action against SETVI; assay type: in vivo, Setaria viridis; conditions: pre-emergence, dosage 320 g/ha, scored visually after 3 weeks vs untreated controls
Outline: as §1

[15] = system: AVEFA; assay: Post-emergence action against AVEFA; assay type: in vivo, Avena fatua; conditions: post-emergence, dosage 80 g/ha, visual assessment about 3 weeks after treatment vs untreated controls
Outline: as §2

[16] = system: ECHCG; assay: Post-emergence action against ECHCG; assay type: in vivo, Echinochloa crus-galli; conditions: post-emergence, dosage 80 g/ha, visual assessment about 3 weeks after treatment vs untreated controls
Outline: as §2

[17] = system: CYPES; assay: Pre-emergence action against CYPES; assay type: in vivo, Cyperus esculentus; conditions: pre-emergence, dosage 320 g/ha, scored visually after 3 weeks vs untreated controls
Outline: as §1

[18] = system: POLCO; assay: Post-emergence action against POLCO; assay type: in vivo, Polygonum convolvulus; conditions: for Post-emergence action against POLCO: dosage 80 g/ha
Outline: as §2

[19] = system: VERPE; assay: Pre-emergence action against VERPE; assay type: in vivo, Veronica persica; conditions: Dosage 320 g/ha, pre-emergence
Outline: as §1

[20] = system: VIOTR; assay: Post-emergence action against VIOTR; assay type: in vivo, Viola tricolor; conditions: for Post-emergence action against VIOTR: dosage 80 g/ha
Outline: as §2

[21] = system: MATIN; assay: Pre-emergence action against MATIN; assay type: in vivo, Matricaria inodora
Outline: as §1

[22] = system: ABUTH; assay: Pre-emergence action against ABUTH; assay type: in vivo, Abutilon theophrasti
Outline: as §1

[23] = system: STEME; assay: Post-emergence action against STEME; assay type: in vivo, Stellaria media; conditions: post-emergence, dosage 80 g/ha
Outline: as §2

[24] = system: AVEFA; assay: Pre-emergence action against AVEFA; assay type: in vivo, Avena fatua; conditions: dosage 320 g/ha, scored visually after 3 weeks vs untreated controls
Outline: as §1

[25] = system: PHBPU; assay: Post-emergence action against PHBPU; assay type: in vivo, Pharbitis purpurea; conditions: post-emergence, dosage 80 g/ha
Outline: as §2

[26] = system: STEME; assay: Pre-emergence action against STEME; assay type: in vivo, Stellaria media; conditions: Dosage 320 g/ha, pre-emergence
Outline: as §1

[27] = system: LOLRI; assay: Pre-emergence action against LOLRI; assay type: in vivo, Lolium rigidum; conditions: dosage 320 g/ha, scored visually after 3 weeks vs untreated controls
From the text: Seeds of monocotyledonous and dicotyledonous weed plants and crop plants are laid out in sandy loam soil in wood-fiber pots and covered with soil. The compounds of the invention, formulated in the form of wettable powders (WP) or as emulsion concentrates (EC), are then applied to the surface of the covering soil in the form of an aqueous suspension or emulsion at a water application rate equating to […], with addition of 0.2% wetting agent. After the treatment, the pots are placed in a greenhouse and kept under good growth conditions for the trial plants. The damage to the test plants is scored visually after a test period of 3 weeks by comparison with untreated controls (herbicidal activity in percent (%): 100% activity=the plants have died, 0% activity=like control plants).

[28] = Table V20, post-emergence, 80 g of a.i./ha
[29] = Table V17, post-emergence, 5 g of a.i./ha
[30] = pre-emergence, dosage 320 g/ha, scored visually after 3 weeks vs untreated controls
[31] = Table V7, pre-emergence, 20 g of a.i./ha

Row | Compound | Pre-emergence action against ECHCG (herbicidal activity) [1] | Pre-emergence action against VIOTR ([2]; Dosage 320 g/ha, pre-emergence) | Pre-emergence action against ALOMY (herbicidal activity in percent) [3] | Post-emergence action against CYPES (herbicidal action in percent) [4] | Post-emergence action against MATIN (herbicidal action in percent) [5] | Pre-emergence action against PHBPU [8] | Post-emergence action against SETVI (herbicidal action in percent) [9] | Post-emergence action against AMARE (herbicidal action in percent) [10] | Pre-emergence action against AMARE (herbicidal activity) [11, 30] | Post-emergence action against ABUTH (herbicidal action in percent) [13] | SETVI (Table B8, pre-emergence herbicidal activity) [14] | Post-emergence action against ECHCG (herbicidal action in percent) [16] | Pre-emergence action against CYPES (herbicidal activity) [17] | Pre-emergence action against VERPE [19] | Post-emergence action against VIOTR [20] | Pre-emergence action against MATIN ([21]; Dosage 320 g/ha, pre-emergence) | Pre-emergence action against ABUTH (herbicidal activity) [22, 30] | Post-emergence action against STEME [23] | Pre-emergence action against AVEFA (herbicidal activity) [24] | Post-emergence action against PHBPU [25] | further results
1 | CCn1nnnc1NC(=O)c1ccc(S(C)(=O)=O)c(C(=O)C2CC2)c1C [2-9] | 100% | 100% | 90% | 90% | 100% | 90% | 90% | 100% | 100% | 90% | 100% | 90% | 90% | 100% | 100 | 100% | 100% | 100 | 100% | 100 | Herbicidal efficacy against VIOTR ([2]; Table V7, pre-emergence): 90; Herbicidal efficacy against VIOTR ([2]; Table V13, pre-emergence): 90; Herbicidal efficacy against CYPES [4, 28]: 90; Herbicidal efficacy against MATIN [5, 29]: 90; Post-emergence action against ALOMY ([6]; Dosage 80 g/ha, post-emergence): 90%; Herbicidal efficacy against ALOMY [6, 28]: 90; Pre-emergence action against POLCO [7]: 80%; Herbicidal efficacy against AMARE ([11]; Table V13, pre-emergence, 20 g of a.i./ha): 100; Post-emergence action against VERPE [12]: 100; Herbicidal efficacy against ABUTH [13, 28]: 90; Post-emergence action against AVEFA (herbicidal action in percent) [15]: 100%; Herbicidal efficacy against POLCO [18, 28]: 100; Post-emergence action against POLCO [18]: 100; Herbicidal efficacy against VIOTR [20, 29]: 100; Herbicidal efficacy against MATIN [21, 31]: 80; Herbicidal efficacy against ABUTH [22, 31]: 100
2 | Cn1nnnc1NC(=O)c1ccc(C(F)(F)F)c(C(=O)C(C)(C)C)c1Cl [1-143] |  |  |  |  |  |  |  |  |  |  |  |  |  |  |  |  |  |  |  |  | pest or weed control at 320 g/ha ([1]; Echinochloa crus-galli, 504 h, read-out: Pre-emergence action against ECHCG (herbicidal activity)): 100%; pest or weed control at 320 g/ha ([2]; Viola tricolor, 504 h, Dosage 320 g/ha, pre-emergence): 100%; pest or weed control at 320 g/ha ([11]; Amaranthus retroflexus, 504 h, pre-emergence, dosage 320 g/ha, scored visually after 3 weeks vs untreated controls, read-out: Pre-emergence action against AMARE (herbicidal activity)): 100%; pest or weed control at 320 g/ha ([14]; Setaria viridis, 504 h, read-out: SETVI (Table B8, pre-emergence herbicidal activity)): 90%; pest or weed control at 320 g/ha ([17]; Cyperus esculentus, 504 h, read-out: Pre-emergence action against CYPES (herbicidal activity)): 90%; pest or weed control at 320 g/ha ([19]; Veronica persica, 504 h): 100%; pest or weed control at 320 g/ha ([21]; Tripleurospermum inodorum, 504 h, Dosage 320 g/ha, pre-emergence): 100%; pest or weed control at 320 g/ha ([22]; Abutilon theophrasti, 504 h, pre-emergence, dosage 320 g/ha, scored visually after 3 weeks vs untreated controls, read-out: Pre-emergence action against ABUTH (herbicidal activity)): 100%; pest or weed control at 320 g/ha ([26]; Stellaria media, 504 h): 100%; pest or weed control at 80 g/ha ([23]; Stellaria media, 504 h): 100%; pest or weed control at 320 g/ha ([27]; Lolium rigidum, 504 h, read-out: Pre-emergence action against LOLRI (herbicidal activity)): 80%
3 | CCn1nnnc1NC(=O)c1ccc(C(F)(F)F)c(C(=O)COC)c1Cl [2-144] | 100% | 100% | 100% |  | 90% | 100% | 100% | 100% | 100% | 90% | 100% | 100% | 100% | 100% | 100 | 100% | 100% | 100 | 100% | 100 | Post-emergence action against VERPE [12]: 90; Pre-emergence action against STEME [26]: 100%; Pre-emergence action against LOLRI (herbicidal activity) [27]: 100%
4 | CCCn1nnnc1NC(=O)c1ccc(C(F)F)c(C(C)=O)c1Cl [3-164] | 100% | 100% | 90% | 90% | 100% | 90% | 100% | 100% | 100% | 90% | 100% | 100% | 100% | 100% | 100 | 100% | 100% | 100 | 100% | 100 | Pre-emergence action against POLCO [7]: 100%; Post-emergence action against AVEFA (herbicidal action in percent) [15]: 80%; Post-emergence action against POLCO [18]: 80; Pre-emergence action against STEME [26]: 100%; Pre-emergence action against LOLRI (herbicidal activity) [27]: 90%
